The nature of assay [1]: Inhibition of rifamycin-resistant Mycobacterium tuberculosis RNA polymerase S450L mutant after 10 mins by rolling circle transcription assay in presence of DNA nanocircle template NC45.
Assay [2] is described as follows: Inhibition of rifamycin-resistant Mycobacterium tuberculosis RNA polymerase H445Y mutant after 10 mins by rolling circle transcription assay in presence of DNA nanocircle template NC45.
The nature of assay [3]: Inhibition of rifamycin-resistant Mycobacterium tuberculosis RNA polymerase D435V mutant after 10 mins by rolling circle transcription assay in presence of DNA nanocircle template NC45.

pIC50: −log10 of the molar value.

Consider one compound from ChEMBL document CHEMBL2380284, “X-ray crystal structures of the Escherichia coli RNA polymerase in complex with benzoxazinorifamycins” (J Med Chem, 2013).

For the compound `CO[C@H]1/C=C/O[C@@]2(C)Oc3c(C)c(O)c4c(O)c(c(/C=N/N5CCN(C)CC5)c(O)c4c3C2=O)NC(=O)/C(C)=C\C=C\[C@H](C)[C@H](O)[C@@H](C)[C@@H](O)[C@@H](C)[C@H](OC(C)=O)[C@@H]1C` [RIFAMPIN], the pIC50 is 3.96 in assay [1], 3.21 in assay [2] and 3.33 in assay [3].

The pIC50 is the IC50 on a negative log10 scale, so that one unit is a factor of ten.
